# Source: PMC8998492 (2022)
# Columns and labels:
# [1] = tested on: c-myc-C25G (DNA, i motif) CCCCACCTTCCCCACCCTCCCCACGCTCCCC; experiment: fluorescence enhancement; conditions: 100 mM KCl; 1 × BPES pH 5.5
# [2] = tested on: c-myc promoter i-motif (DNA, i motif) CCCCACCTTCCCCACCCTCCCCACCCTCCCC; experiment: fluorescence enhancement; conditions: 100 mM KCl; 1 × BPES pH 5.5
# [3] = tested on: c-myc promoter i-motif (DNA, i motif) CCCCACCTTCCCCACCCTCCCCACCCTCCCC; experiment: CD melting; conditions: 100 mM KCl; 1 × BPES pH 5.5; 2 μM DNA, 10 μM G59; Tm 53.1 to 59.9 °C
# [4] = tested on: c-myc promoter i-motif (DNA, i motif) CCCCACCTTCCCCACCCTCCCCACCCTCCCC; experiment: ITC; conditions: 100 μM G59 injected into 4 μM DNA; KD = 1/Ka (Ka 5.94×10^5 M-1)
# [5] = tested on: c-myc-C7T (DNA, i motif) CCCCACTTTCCCCACCCTCCCCACCCTCCCC; experiment: fluorescence enhancement; conditions: 100 mM KCl; 1 × BPES pH 5.5
# [6] = tested on: DS26 (DNA, duplex) CAATCGGATCGAATTCGATCCGATTG; experiment: fluorescence titration; conditions: 100 mM KCl; 20 mM Tris-HCl pH 7.4; also unstained in PAGE
# [7] = tested on: c-myc-C16T (DNA, i motif) CCCCACCTTCCCCACTCTCCCCACCCTCCCC; experiment: fluorescence enhancement; conditions: 100 mM KCl; 1 × BPES pH 5.5
# [8] = tested on: SS26 (DNA, single strand) ATACGATGCTTCACGGTGCTATCTG; experiment: fluorescence titration; conditions: 100 mM KCl; 20 mM Tris-HCl pH 7.4; also unstained in PAGE
# [9] = tested on: c-myc-C25T (DNA, i motif) CCCCACCTTCCCCACCCTCCCCACTCTCCCC; experiment: fluorescence enhancement; conditions: 100 mM KCl; 1 × BPES pH 5.5
# [10] = tested on: c-myc-C16G (DNA, i motif) CCCCACCTTCCCCACGCTCCCCACCCTCCCC; experiment: fluorescence enhancement; conditions: 100 mM KCl; 1 × BPES pH 5.5
# [11] = tested on: c-myc-C16A (DNA, i motif) CCCCACCTTCCCCACACTCCCCACCCTCCCC; experiment: fluorescence enhancement; conditions: 100 mM KCl; 1 × BPES pH 5.5
# [12] = tested on: c-myc-C25A (DNA, i motif) CCCCACCTTCCCCACCCTCCCCACACTCCCC; experiment: fluorescence enhancement; conditions: 100 mM KCl; 1 × BPES pH 5.5
# [13] = tested on: c-myc-C7A (DNA, i motif) CCCCACATTCCCCACCCTCCCCACCCTCCCC; experiment: fluorescence enhancement; conditions: 100 mM KCl; 1 × BPES pH 5.5
# [14] = tested on: c-myc-C7G (DNA, i motif) CCCCACGTTCCCCACCCTCCCCACCCTCCCC; experiment: fluorescence enhancement; conditions: 100 mM KCl; 1 × BPES pH 5.5
# [15] = tested on: 5'-biotin c-myc G-quadruplex (DNA, G4) TTGAGGGTGGGTAGGGTGGGTAAA; experiment: SPR; conditions: 100 mM KCl; 20 mM Tris-HCl pH 7.4, 25 °C; DNA immobilised
# [16] = tested on: 5'-biotin c-myc (i-motif) (DNA, i motif) CCCCACCTTCCCCACCCTCCCCACCCTCCCC; experiment: SPR; conditions: 100 mM KCl; 20 mM MES pH 5.5, 0.05% Tween-20, 25 °C; DNA immobilised
# [17] = tested on: c-myc promoter i-motif (DNA, i motif) CCCCACCTTCCCCACCCTCCCCACCCTCCCC; experiment: fluorescent displacement (FID), microplate reader; conditions: 100 mM KCl; 1 × BPES; tracer G59 displaced
# [18] = tested on: c-myc promoter i-motif (DNA, i motif) CCCCACCTTCCCCACCCTCCCCACCCTCCCC; experiment: fluorescent displacement (FID); conditions: 100 mM KCl; 1 × BPES pH 5.5; tracer 1 μM G59 displaced, 2 μM DNA; 5 eq (5 μM) 3be
structure (smiles),measurement,setting,value
O=C1c2cccc3c(-c4ccc5c(c4)c4cc(-c6ccc7c8c(cccc68)C(=O)N(CCN6CCCC6)C7=O)ccc4n5CCN4CCCC4)ccc(c23)C(=O)N1CCN1CCCC1,FI/F0,[1],6.59
same,FI/F0,[2],17.98
same,ΔTm,[3],6.8 °C
same,KD,[4],1.68 µM
same,FI/F0,[5],18.35
same,binding,[6],weak
same,FI/F0,[7],18.23
same,binding,[8],weak
same,FI/F0,[9],17.92
same,FI/F0,[10],6.03
same,FI/F0,[11],15.2
same,FI/F0,[12],17.15
same,FI/F0,[13],13.35
same,FI/F0,[14],5.44
C[C@H]1O[C@@H](O[C@H]2CC[C@@]3(C)[C@@H](CC[C@]4(C)[C@@H]3C=CC3=C5CC(C)(C)CC[C@]5(CO)[C@H](O)C[C@]34C)[C@]2(C)CO)[C@H](O)[C@@H](O[C@@H]2O[C@H](CO)[C@@H](O)[C@H](O)[C@H]2O)[C@H]1O,KD,[15],46.2 µM
same,KD,[16],9.52 µM
same,binding,[17],yes
c1ccc2c(c1)c1cc(-c3cn(CCN4CCCC4)nn3)ccc1n2CCN1CCCC1,relative replacement ratio,[18],42.09%
